In this data set the target is T1, ATP-binding cassette subfamily G member 2 (ABCG2) (Homo sapiens, UniProt Q9UNQ0).
T1 sequence (Q9UNQ0 1-655): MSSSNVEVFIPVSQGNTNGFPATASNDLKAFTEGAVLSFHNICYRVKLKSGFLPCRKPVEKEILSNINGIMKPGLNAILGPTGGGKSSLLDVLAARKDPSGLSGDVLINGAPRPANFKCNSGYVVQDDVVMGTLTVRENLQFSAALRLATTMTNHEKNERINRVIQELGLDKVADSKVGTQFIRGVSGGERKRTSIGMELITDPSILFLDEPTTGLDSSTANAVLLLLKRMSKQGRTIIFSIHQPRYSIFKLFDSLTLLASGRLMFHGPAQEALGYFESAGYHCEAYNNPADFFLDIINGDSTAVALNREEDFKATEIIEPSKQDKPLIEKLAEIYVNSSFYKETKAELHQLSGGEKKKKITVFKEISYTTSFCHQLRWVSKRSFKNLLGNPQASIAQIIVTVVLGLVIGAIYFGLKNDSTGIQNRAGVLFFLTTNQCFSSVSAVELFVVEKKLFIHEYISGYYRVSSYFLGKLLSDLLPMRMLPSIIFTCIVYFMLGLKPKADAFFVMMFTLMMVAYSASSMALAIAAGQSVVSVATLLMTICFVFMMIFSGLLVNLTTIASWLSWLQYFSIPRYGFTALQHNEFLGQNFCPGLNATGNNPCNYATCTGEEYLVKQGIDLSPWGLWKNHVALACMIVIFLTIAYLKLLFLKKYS
The data set is described as follows: competition of […]-IAAP photoaffinity labeling in crude membranes.

Take `C=CC(=O)Nc1cccc(Nc2nc(Nc3ccc(N4CCN(C(C)=O)CC4)cc3OC)ncc2C(F)(F)F)c1` [rociletinib]: the “competition of [125I]-IAAP photoaffinity labeling in crude membranes; also vanad” value was ~ 5 μmol/L.

Values taken from article PMC7280144 (Acta Pharmaceutica Sinica. B, 2020).
